Consider seven cell lines from the supplement of paper PMC10307832.

Assay in all cases: relative viability (nuclei count vs DMSO), 5 days (fraction); higher = more cells survive
Compound in assay [1]: C1/C(=C\C2=CC=CS2)/C(=O)/C(=C/C3=CC=CS3)/C1 + Nc1nc2[nH]cc(CCc3ccc(C(=O)N[C@@H](CCC(=O)O)C(=O)O)cc3)c2c(=O)[nH]1 [Pemetrexed] (partner 0.2 µM)
Put shortly: (§1)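 Medians of duplicate plates are given as relative viability. That measure is the nuclei count in treated wells divided by the count in vehicle wells. Counts were taken on 4× images of lung cancer cell lines in 1536-well plates, 5 days after pin-tool dosing the day after seeding with one drug alone or a fixed anchor-drug dose plus five library-drug doses (not always all listed) in √10 steps.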

Compound in assay [2]: C[C@]12O[C@H](C[C@]1(O)CO)n1c3ccccc3c3c4c(c5c6ccccc6n2c5c31)CNC4=O [Lestaurtinib] + Cc1nc(NC(=O)N2CCC[C@H]2C(N)=O)sc1-c1ccnc(C(C)(C)C(F)(F)F)c1 [Alpelisib] (partner 2 µM)
The method, boiled down: as §1

Compound in assay [3]: C1=CC(=CC=C1C2=CC(=C(S2)NC(=O)N)C(=O)N)F [TPCA-1] + CS(=O)(=O)N1CCN(Cc2cc3nc(-c4cccc5[nH]ncc45)nc(N4CCOCC4)c3s2)CC1 [Pictilisib] (partner 1 µM)
Put shortly: as §1

Compound in assay [4]: C1=CC(=CC=C1C2=CC(=C(S2)NC(=O)N)C(=O)N)F [TPCA-1] + COc1cc2c(Oc3ccc(NC(=O)C4(C(=O)Nc5ccc(F)cc5)CC4)cc3F)ccnc2cc1OCCCN1CCOCC1 [Foretinib] (partner 0.25 µM)
Put shortly:
as §1

For the cell line NCI-H1915, the relative viability in assay [1] (first compound 0.2 µM) stood at 0.456; in assay [1] (first compound 0.6325 µM), 0.529; in assay [1] (first compound 2 µM), 0.479; in assay [1] (first compound 6.325 µM) it was 0.447; in assay [1] (first compound 20 µM), 0.475; in assay [2] (first compound 0.005 µM), 1.06. The relative viability in assay [2] (first compound 0.01581 µM) came to 1.05; in assay [2] (first compound 0.05 µM), 1.04; in assay [2] (first compound 0.1581 µM), 0.761; in assay [2] (first compound 0.5 µM) it was 0.376; in assay [3] (first compound 0.04 µM), 1.27; in assay [3] (first compound 0.1265 µM), 0.906. The relative viability came to 1.05 in assay [3] (first compound 0.4 µM); 0.876 in assay [3] (first compound 1.265 µM); 0.477 in assay [3] (first compound 4 µM); 1.17 in assay [4] (first compound 0.04 µM); 1.06 in assay [4] (first compound 0.1265 µM); 1.15 in assay [4] (first compound 0.4 µM). Further, the relative viability in assay [4] (first compound 1.265 µM) is 1.07; in assay [4] (first compound 4 µM), 0.872.

On to NCI-H1944, for which the relative viability in assay [1] (first compound 0.2 µM) was 0.619; in assay [1] (first compound 0.6325 µM) it was 0.591; in assay [1] (first compound 2 µM) it was 0.603; in assay [1] (first compound 20 µM), 0.572; in assay [2] (first compound 0.005 µM), 0.82; in assay [2] (first compound 0.01581 µM) it was 0.745. Moreover, the relative viability in assay [2] (first compound 0.05 µM) was 0.61; in assay [2] (first compound 0.1581 µM) it was 0.41; in assay [2] (first compound 0.5 µM), 0.383; in assay [3] (first compound 0.04 µM), 0.384; in assay [3] (first compound 0.1265 µM), 0.326; in assay [3] (first compound 0.4 µM), 0.343. For the same cell line, the relative viability was 0.312 in assay [3] (first compound 1.265 µM); 0.258 in assay [3] (first compound 4 µM); 1.04 in assay [4] (first compound 0.04 µM); 0.821 in assay [4] (first compound 0.1265 µM); 0.869 in assay [4] (first compound 0.4 µM); 0.847 in assay [4] (first compound 1.265 µM). The relative viability in assay [4] (first compound 4 µM) came out at 0.488.

NCI-H1975: the relative viability worked out at 0.321 in assay [1] (first compound 0.2 µM); 0.298 in assay [1] (first compound 0.6325 µM); 0.32 in assay [1] (first compound 2 µM); 0.269 in assay [1] (first compound 6.325 µM); 0.301 in assay [1] (first compound 20 µM); 0.658 in assay [2] (first compound 0.005 µM). Also, the relative viability came to 0.644 in assay [2] (first compound 0.01581 µM); 0.372 in assay [2] (first compound 0.05 µM); 0.347 in assay [2] (first compound 0.1581 µM); 0.212 in assay [2] (first compound 0.5 µM); 0.278 in assay [3] (first compound 0.04 µM); 0.259 in assay [3] (first compound 0.1265 µM). Moreover, the relative viability came to 0.264 in assay [3] (first compound 0.4 µM); 0.233 in assay [3] (first compound 1.265 µM); 0.16 in assay [3] (first compound 4 µM); 0.949 in assay [4] (first compound 0.04 µM); 0.919 in assay [4] (first compound 0.1265 µM); 0.995 in assay [4] (first compound 0.4 µM). Further, the relative viability worked out at 0.97 in assay [4] (first compound 1.265 µM) and 0.532 in assay [4] (first compound 4 µM).

Regarding NCI-H1993, the relative viability was 0.669 in assay [1] (first compound 0.2 µM); 0.593 in assay [1] (first compound 0.6325 µM); 0.539 in assay [1] (first compound 2 µM); 0.551 in assay [1] (first compound 6.325 µM); 0.472 in assay [1] (first compound 20 µM); 0.788 in assay [2] (first compound 0.005 µM). Also, the relative viability in assay [2] (first compound 0.01581 µM) was 0.677; in assay [2] (first compound 0.05 µM), 0.691; in assay [2] (first compound 0.1581 µM), 0.591; in assay [2] (first compound 0.5 µM), 0.583; in assay [3] (first compound 0.04 µM), 0.883; in assay [3] (first compound 0.4 µM), 0.939. For the same cell line, the relative viability in assay [3] (first compound 1.265 µM) is 0.911; in assay [3] (first compound 4 µM), 0.723; in assay [4] (first compound 0.04 µM), 0.798; in assay [4] (first compound 0.1265 µM), 0.644; in assay [4] (first compound 0.4 µM), 0.75; in assay [4] (first compound 1.265 µM), 0.663. The relative viability in assay [4] (first compound 4 µM) is 0.676.

NCI-H2009: the relative viability in assay [1] (first compound 0.2 µM) is 1.05; in assay [1] (first compound 0.6325 µM), 1.01; in assay [1] (first compound 2 µM), 1; in assay [1] (first compound 20 µM), 0.977; in assay [2] (first compound 0.005 µM), 1.27; in assay [2] (first compound 0.01581 µM), 1.12. The relative viability in assay [2] (first compound 0.05 µM) was 0.971; in assay [2] (first compound 0.1581 µM), 1.05; in assay [2] (first compound 0.5 µM), 0.673; in assay [3] (first compound 0.04 µM) it was 0.974; in assay [3] (first compound 0.1265 µM) it was 0.741; in assay [3] (first compound 0.4 µM) it was 0.896. For the same cell line, the relative viability is 0.272 in assay [3] (first compound 1.265 µM); 0.318 in assay [3] (first compound 4 µM); 1.24 in assay [4] (first compound 0.04 µM); 1.21 in assay [4] (first compound 0.1265 µM); 1.22 in assay [4] (first compound 0.4 µM); 1.28 in assay [4] (first compound 1.265 µM). For the same cell line, in assay [4] (first compound 4 µM), the relative viability was 1.18.

For the cell line NCI-H2023, the relative viability turned out to be 0.239 in assay [1] (first compound 0.2 µM); 0.305 in assay [1] (first compound 0.6325 µM); 0.263 in assay [1] (first compound 2 µM); 0.175 in assay [1] (first compound 6.325 µM); 0.218 in assay [1] (first compound 20 µM); 0.674 in assay [2] (first compound 0.005 µM). Moreover, the relative viability in assay [2] (first compound 0.01581 µM) stood at 0.616; in assay [2] (first compound 0.05 µM) it was 0.536; in assay [2] (first compound 0.1581 µM) it was 0.488; in assay [2] (first compound 0.5 µM) it was 0.384; in assay [3] (first compound 0.04 µM), 0.264; in assay [3] (first compound 0.1265 µM), 0.177. The relative viability stood at 0.237 in assay [3] (first compound 0.4 µM); 0.176 in assay [3] (first compound 1.265 µM); 0.115 in assay [3] (first compound 4 µM); 0.88 in assay [4] (first compound 0.04 µM); 0.86 in assay [4] (first compound 0.1265 µM); 0.874 in assay [4] (first compound 0.4 µM). Besides, the values for the relative viability in assay [4] (first compound 1.265 µM) and in assay [4] (first compound 4 µM) were 0.797 and 0.658, respectively.

NCI-H2085: the relative viability in assay [1] (first compound 0.2 µM) came to 0.963; in assay [1] (first compound 0.6325 µM) it was 0.909; in assay [1] (first compound 2 µM), 0.96; in assay [1] (first compound 6.325 µM), 0.857; in assay [1] (first compound 20 µM), 0.939; in assay [2] (first compound 0.005 µM), 1.05. The relative viability in assay [2] (first compound 0.01581 µM) was 1.11; in assay [2] (first compound 0.05 µM), 1.06; in assay [2] (first compound 0.1581 µM), 1.01; in assay [2] (first compound 0.5 µM), 0.843; in assay [3] (first compound 0.04 µM), 0.504; in assay [3] (first compound 0.1265 µM), 0.385. The relative viability was 0.52 in assay [3] (first compound 0.4 µM); 0.331 in assay [3] (first compound 1.265 µM); 0.418 in assay [3] (first compound 4 µM); 0.846 in assay [4] (first compound 0.04 µM); 0.79 in assay [4] (first compound 0.1265 µM); 1.2 in assay [4] (first compound 0.4 µM). For the same cell line, the relative viability in assay [4] (first compound 1.265 µM) came out at 0.882; in assay [4] (first compound 4 µM), 0.742.
